Measured values as given in patent publication US10988477B2 (Merck Patent GmbH, priority 2018, dated 2021).

Legend:
GCN2 kinase = GCN2 kinase (Homo sapiens, UniProt Q9P2K8); test: GCN2 enzyme inhibition assay (Transcreener ADP2 fluorescence polarization); format: biochemical; details: Enzyme activity for compounds of Formula IV; Ki(app), 280 μM ATP, 25° C.
In short: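 Inhibition of 4 nM GCN2 was measured with compound up to 8 μM final, ATP 280 μM and (RS)7 peptide 200 μM over a 1 h, 25 °C reaction. ADP FP readout; IC50 and Ki(app) calculated from percent inhibition.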

[1] = biological target: intracellular GCN2 (phosphorylation of the GCN2 substrate eIF2α) (Homo sapiens, UniProt Q9P2K8); test: GCN2 cellular inhibition assay (AlphaScreen SureFire P-eIF2α Ser51, borrelidin-treated U2OS cells); format: cell-based; details: compounds of Formula IV; biomarker assay, phosphorylated eIF2α Ser51 in borrelidin-treated U2OS cells
Chain of intracellular GCN2 (phosphorylation of the GCN2 substrate eIF2α) (Q9P2K8 whole entry): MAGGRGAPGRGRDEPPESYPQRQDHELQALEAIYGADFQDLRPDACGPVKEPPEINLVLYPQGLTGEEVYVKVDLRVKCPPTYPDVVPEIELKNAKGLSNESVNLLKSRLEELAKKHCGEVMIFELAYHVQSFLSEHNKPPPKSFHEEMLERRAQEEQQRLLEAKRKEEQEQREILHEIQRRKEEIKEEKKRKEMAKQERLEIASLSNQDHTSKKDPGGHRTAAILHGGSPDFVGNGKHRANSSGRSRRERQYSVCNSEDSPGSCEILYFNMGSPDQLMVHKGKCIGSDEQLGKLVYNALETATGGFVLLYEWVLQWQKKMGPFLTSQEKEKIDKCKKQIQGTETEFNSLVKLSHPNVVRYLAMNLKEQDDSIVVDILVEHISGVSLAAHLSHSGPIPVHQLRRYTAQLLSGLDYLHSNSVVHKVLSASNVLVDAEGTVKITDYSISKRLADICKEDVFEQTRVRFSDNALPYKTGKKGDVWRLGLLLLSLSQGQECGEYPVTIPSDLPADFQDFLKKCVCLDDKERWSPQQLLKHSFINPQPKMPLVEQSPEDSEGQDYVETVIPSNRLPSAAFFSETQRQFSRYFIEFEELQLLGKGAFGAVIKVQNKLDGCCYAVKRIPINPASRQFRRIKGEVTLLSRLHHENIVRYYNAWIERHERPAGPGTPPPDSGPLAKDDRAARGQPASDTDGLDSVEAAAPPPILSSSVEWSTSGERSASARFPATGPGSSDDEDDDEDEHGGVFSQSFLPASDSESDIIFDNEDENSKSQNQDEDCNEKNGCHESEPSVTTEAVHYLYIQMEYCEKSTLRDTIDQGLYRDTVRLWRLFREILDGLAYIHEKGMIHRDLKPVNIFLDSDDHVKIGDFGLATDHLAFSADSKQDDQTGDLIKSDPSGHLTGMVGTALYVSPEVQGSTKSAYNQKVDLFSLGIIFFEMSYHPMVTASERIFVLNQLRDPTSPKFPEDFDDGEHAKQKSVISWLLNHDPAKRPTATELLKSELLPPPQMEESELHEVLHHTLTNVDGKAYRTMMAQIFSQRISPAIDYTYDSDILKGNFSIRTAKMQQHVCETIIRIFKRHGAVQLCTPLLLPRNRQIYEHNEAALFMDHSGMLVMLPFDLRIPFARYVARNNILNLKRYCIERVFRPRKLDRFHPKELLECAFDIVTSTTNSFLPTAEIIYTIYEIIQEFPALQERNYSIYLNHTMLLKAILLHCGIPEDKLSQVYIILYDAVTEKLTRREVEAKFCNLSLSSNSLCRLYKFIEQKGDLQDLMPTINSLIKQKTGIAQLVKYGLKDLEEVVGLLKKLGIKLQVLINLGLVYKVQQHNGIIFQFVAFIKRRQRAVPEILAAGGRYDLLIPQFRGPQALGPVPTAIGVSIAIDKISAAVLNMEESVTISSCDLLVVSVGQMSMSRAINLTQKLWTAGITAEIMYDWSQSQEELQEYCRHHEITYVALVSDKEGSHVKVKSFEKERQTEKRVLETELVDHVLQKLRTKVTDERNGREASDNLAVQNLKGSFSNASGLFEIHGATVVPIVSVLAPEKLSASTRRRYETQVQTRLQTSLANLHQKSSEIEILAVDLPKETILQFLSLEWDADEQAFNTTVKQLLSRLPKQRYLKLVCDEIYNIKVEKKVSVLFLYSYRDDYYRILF
In short: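 First, U2OS cells are plated and left overnight at 37 °C. Next, compounds (from 40 μM final, 4-fold steps) and 10 μM borrelidin are added for 1 h, cells lysed, and phospho-Ser51 eIF2α detected by AlphaScreen bead sandwich. Inhibition is computed versus borrelidin-only wells.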

Chain of GCN2 kinase (Q9P2K8 whole entry): as above

| SMILES | Ki (GCN2 kinase) [nM] | IC50 [1] [nM] |
| --- | --- | --- |
| FC(F)(F)c1cn2c(-c3nccc(N4CCC(C5CCOC5)C4)n3)cnc2cn1 (stereo not shown) [IV-608, 3-(4-(3-(Tetrahydrofuran-3-yl)pyrrolidin-1-yl)pyrimidin-2-yl)-6-(trifluoromethyl)imidazo[1,2-a]pyrazine] | 100 to 1000 | 500 to 5000 |
| Cc1cc(N2CC(C)NC(c3cn[nH]c3)C2C)nc(-c2cnc3cnc(C(F)(F)F)cn23)n1 (stereo not shown) [IV-627, 3-(4-(2,5-Dimethyl-3-(1H-pyrazol-4-yl)piperazin-1-yl)-6-methylpyrimidin-2-yl)-6-(trifluoromethyl)imidazo[1,2-a]pyrazine] | < 10 | 500 to 5000 |
| CC1CCC(C(N)=O)CN1c1ccnc(-c2cnc3cnc(C(F)(F)F)cn23)n1 (stereo not shown) [IV-631, 6-Methyl-1-(2-(6-(trifluoromethyl)imidazo[1,2-a]pyrazin-3-yl)pyrimidin-4-yl)piperidine-3-carboxamide] | 10 to 100 | 500 to 5000 |
| FC(F)(F)c1cn2c(-c3nccc(N4CCC(Cc5cn[nH]c5)C4)n3)cnc2cn1 (stereo not shown) [IV-635, 3-(4-(3-((1H-Pyrazol-4-yl)methyl)pyrrolidin-1-yl)pyrimidin-2-yl)-6-(trifluoromethyl)imidazo[1,2-a]pyrazine] | 10 to 100 | 500 to 5000 |
| CC1CN(c2cc(N3CCC3)nc(-c3cnc4cnc(C(F)(F)F)cn34)n2)C(C)C(c2cn[nH]c2)N1 (stereo not shown) [IV-637, 3-(4-(Azetidin-1-yl)-6-(2,5-dimethyl-3-(1H-pyrazol-4-yl)piperazin-1-yl)pyrimidin-2-yl)-6-(trifluoromethyl)imidazo[1,2-a]pyrazine] | < 10 | 500 to 5000 |
| CC1CN(c2cc(N=S(C)(C)=O)nc(-c3cnc4cnc(C(F)(F)F)cn34)n2)C(C)C(c2cn[nH]c2)N1 (stereo not shown) [IV-648, ((6-(2,5-Dimethyl-3-(1H-pyrazol-4-yl)piperazin-1-yl)-2-(6-(trifluoromethyl)imidazo[1,2-a]pyrazin-3-yl)pyrimidin-4-yl)imino)dimethyl-λ^6-sulfanone] | < 10 | 500 to 5000 |
| Cc1cc(N2CCC(c3cn[nH]c3)C2)nc(-c2cnc3cnc(C(F)(F)F)cn23)n1 (stereo not shown) [IV-668, 3-(4-(3-(1H-Pyrazol-4-yl)pyrrolidin-1-yl)-6-methylpyrimidin-2-yl)-6-(trifluoromethyl)imidazo[1,2-a]pyrazine] | 10 to 100 | 500 to 5000 |
| CC1NCC(C)N(c2ccnc(-c3cnc4cnc(C(F)(F)F)cn34)n2)C1c1ccc(=O)[nH]c1 (stereo not shown) [IV-676, 5-(3,6-Dimethyl-1-(2-(6-(trifluoromethyl)imidazo[1,2-a]pyrazin-3-yl)pyrimidin-4-yl)piperazin-2-yl)pyridin-2(1H)-one] | 100 to 1000 | 500 to 5000 |
| FC(F)(F)c1cn2c(-c3nccc(N4CCCC(c5cnco5)C4)n3)cnc2cn1 (stereo not shown) [IV-678, 5-(1-(2-(6-(Trifluoromethyl)imidazo[1,2-a]pyrazin-3-yl)pyrimidin-4-yl)piperidin-3-yl)oxazole] | 10 to 100 | 500 to 5000 |
| FC(F)(F)c1cn2c(-c3nccc(N4CC(c5cn[nH]c5)N5CCC[C@H]5C4)n3)cnc2cn1 (stereo partly drawn) [IV-679, 3-(4-((8aS)-4-(1H-Pyrazol-4-yl)hexahydropyrrolo[1,2-a]pyrazin-2(1H)-yl)pyrimidin-2-yl)-6-(trifluoromethyl)imidazo[1,2-a]pyrazine] | < 10 | 500 to 5000 |

Further lines, results first:

| Ki (GCN2 kinase) [nM] | IC50 [1] [nM] | SMILES |
| --- | --- | --- |
| < 10 | 500 to 5000 | COc1cc(N2CC(C)NC(c3cn[nH]c3)C2C)nc(-c2cnc3cnc(C(F)(F)F)cn23)n1 (stereo not shown) [IV-593, 3-(4-(2,5-Dimethyl-3-(1H-pyrazol-4-yl)piperazin-1-yl)-6-methoxypyrimidin-2-yl)-6-(trifluoromethyl)imidazo[1,2-a]pyrazine] |
| < 10 | < 500 | FC(F)(F)c1cn2c(-c3nccc(N4CCCC(c5cn[nH]c5Cl)C4)n3)cnc2cn1 (stereo not shown) [IV-601, 3-(4-(3-(5-Chloro-1H-pyrazol-4-yl)piperidin-1-yl)pyrimidin-2-yl)-6-(trifluoromethyl)imidazo[1,2-a]pyrazine] |
| 100 to 1000 | > 5000 | FC(F)(F)c1cn2c(-c3nccc(N4CCC(C5CCOC5)C4)n3)cnc2cn1 (stereo not shown) [IV-609, 3-(4-(3-(Tetrahydrofuran-3-yl)pyrrolidin-1-yl)pyrimidin-2-yl)-6-(trifluoromethyl)imidazo[1,2-a]pyrazine] |
| < 10 | 500 to 5000 | NC(=O)C1CCCN(c2ccnc(-c3cnc4cnc(C(F)(F)F)cn34)n2)C1 (stereo not shown) [IV-626, 1-(2-(6-(Trifluoromethyl)imidazo[1,2-a]pyrazin-3-yl)pyrimidin-4-yl)piperidine-3-carboxamide] |
| 10 to 100 | > 5000 | CC1(c2n[nH]cc2C2CCN(c3ccnc(-c4cnc5cnc(C(F)(F)F)cn45)n3)C2)CC1 (stereo not shown) [IV-630, 3-(4-(3-(3-(1-Methylcyclopropyl)-1H-pyrazol-4-yl)pyrrolidin-1-yl)pyrimidin-2-yl)-6-(trifluoromethyl)imidazo[1,2-a]pyrazine] |
| < 10 | 500 to 5000 | CC1CN(c2cc(OCCO)nc(-c3cnc4cnc(C(F)(F)F)cn34)n2)C(C)C(c2cn[nH]c2)N1 (stereo not shown) [IV-640, 2-((6-(2,5-Dimethyl-3-(1H-pyrazol-4-yl)piperazin-1-yl)-2-(6-(trifluoromethyl)imidazo[1,2-a]pyrazin-3-yl)pyrimidin-4-yl)oxy)ethan-1-ol] |
| 10 to 100 | > 5000 | FC(F)(F)c1cn2c(-c3nccc(N4CCCC(c5nccs5)C4)n3)cnc2cn1 (stereo not shown) [IV-675, 2-(1-(2-(6-(Trifluoromethyl)imidazo[1,2-a]pyrazin-3-yl)pyrimidin-4-yl)piperidin-3-yl)thiazole] |
| 10 to 100 | 500 to 5000 | CC1CN(c2ccnc(-c3cnc4cnc(C(F)(F)F)cn34)n2)C(C)C(c2ccc(=O)[nH]c2)N1 (stereo not shown) [IV-677, 5-(3,6-Dimethyl-4-(2-(6-(trifluoromethyl)imidazo[1,2-a]pyrazin-3-yl)pyrimidin-4-yl)piperazin-2-yl)pyridin-2(1H)-one] |
| 10 to 100 | 500 to 5000 | FC(F)(F)c1cn2c(-c3nccc(N4CCC(c5cn[nH]c5)CC4)n3)cnc2cn1 [IV-680, 3-(4-(4-(1H-Pyrazol-4-yl)piperidin-1-yl)pyrimidin-2-yl)-6-(trifluoromethyl)imidazo[1,2-a]pyrazine] |
| 100 to 1000 | 500 to 5000 | FC(F)(F)c1cn2c(-c3nccc(N4CCCC(c5ncco5)C4)n3)cnc2cn1 (stereo not shown) [IV-686, 2-(1-(2-(6-(Trifluoromethyl)imidazo[1,2-a]pyrazin-3-yl)pyrimidin-4-yl)piperidin-3-yl)oxazole] |
| 100 to 1000 | 500 to 5000 | CC1CN(c2ccnc(-c3cnc4cnc(C(F)(F)F)cn34)n2)C(C)C(c2cnn(C)c2)N1 (stereo not shown) [IV-687, 3-(4-(2,5-Dimethyl-3-(1-methyl-1H-pyrazol-4-yl)piperazin-1-yl)pyrimidin-2-yl)-6-(trifluoromethyl)imidazo[1,2-a]pyrazine] |
| 10 to 100 | 500 to 5000 | CC1C(c2cn[nH]c2)CCN1c1ccnc(-c2cnc3cnc(C(F)(F)F)cn23)n1 (stereo not shown) [IV-688, 3-(4-(2-Methyl-3-(1H-pyrazol-4-yl)pyrrolidin-1-yl)pyrimidin-2-yl)-6-(trifluoromethyl)imidazo[1,2-a]pyrazine] |
| 10 to 100 | > 5000 | CC1C(c2cn[nH]c2)CCN1c1ccnc(-c2cnc3cnc(C(F)(F)F)cn23)n1 (stereo not shown) [IV-689, 3-(4-(2-Methyl-3-(1H-pyrazol-4-yl)pyrrolidin-1-yl)pyrimidin-2-yl)-6-(trifluoromethyl)imidazo[1,2-a]pyrazine] |
